# Source: patent US20050106558A1, “Library of modified structural genes or capsid modified particles useful for the identification of viral clones with desired cell tropism” (priority 2001, published 2005)
# Columns and labels:
# [1] = tested on: M-07e cells; assay: Transduction efficiency of rAAV-GFP clones on M-07e cells (FACS), with or without competitors; type: cell-based, human
# Protocol: Cells were seeded in 96 or 24 well plates (Nunc, Wiesbaden, Germany) and infected with rAAV-GFP clones, harvested 48 hrs p.i., washed and resuspended in 1 ml PBS. The percentage of GFP expressing cells was determined by flow cytometry with a Coulter Epics XL-MCL (Beckman Coulter, Krefeld, Germany). A minimum of 5000 cells were analyzed for each sample. Infectivity of the retargeted mutants was determined in the presence or absence of various concentrations of GRGDTP or GRGES peptides (Bachem, Bubendorf, Swiss) or 5 I.U./[II soluble heparin (Braun, Melsungen, Germany).
# The selected capsid mutants were tested for their ability to transduce M-07e cells (FIG. 5a). At a genomic particle/cell ratio of 2×10^4, the mutants rAAV-M07A and rAAV-M07T transduced 50±2.5% and 47±2.7% of M-07e cells, respectively, representing a 100 and 94 fold increase in comparison to rAAV-wt transduction efficiency (0.5±0.01%). In contrast, rAAV-MecA and rAAV-MecB transduced M-07e cells with an efficiency of only 8.1±1.5% and 16±2%. The vector rAAV-L14, carrying an RGD motif inserted at position 587 (Girod A et al (1999) supra), was also compared. […] This highlighted the advantage of the combinatorial approach when compared with the simple insertion of an exogenous sequence.
# We then examined whether the transduction of M-07e cells by rAAV-M07A and rAAV-M07T vectors was specifically mediated by the amino acids inserted at position 587. In the capsid of wt AAV, the region around position 587 is involved in the binding to heparan sulfate proteoglycan (HSPG) (Nicklin S A et al. (2001) Mol. Ther. 4, 174-81; Wu P. et al. (2000) J. Virol. 74, 8635-47), the primary receptor of AAV-2 (Summerford C and Samulski J (1998) J. Virol. 72, 1438-45). Pre-incubation with soluble heparin, an HSPG analogue and competitor, inhibited transduction of M-07e cells by rAAV-MecB but not by rAAV-M07A, rAAV-M07T and rAAV-MecA (FIG. 5a). […] This effect was concentration-dependent (FIG. 5b). […]
# [2] = target: integrin receptor expressed on the surface of the target cells; assay: cell-based or functional assay
substance,measurement,setting,value
RGDS,reduction of transduction efficiencies by competing RGDS peptide,[1]; M07e cells incubated with 100 uM peptide prior to infection,more than 50%
rAAV-M07T (RGDTPTS insertion) (from UniProt P03135 1-587; P03135 588-735),reduction of M07e cell transduction after incubation of the cells with 100 uM RGDS peptide,[2],> 50%
RGES,effect of RGES peptide pre-incubation on infection,[1]; M07e cells,failed to inhibit
rAAV-M07A (RGDAVGV insertion) (from UniProt P03135 1-587; P03135 588-735),reduction of M07e cell transduction after incubation of the cells with 100 uM RGDS peptide,[2],> 50%
GRGES,effect of inactive GRGES peptide on transduction,"[1]; M-07e cells, 450 μM",no effect
